PubChem BioAssay (NCI)
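GI50 = concentration required for 50% inhibition of growth. TGI denotes the concentration required for complete inhibition of growth.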

What was measured:
Test in all cases: NCI anticancer screen, dose series, 384-well format
[1] = system: NCI-H322M lung
[2] = system: SK-MEL-5 melanoma
[3] = system: MDA-MB-231 breast
[4] = system: DU-145 prostate
[5] = system: A498 renal
[6] = system: ACHN renal
[7] = system: SF-268 CNS
[8] = system: UACC-62 melanoma
[9] = system: UO-31 renal
[10] = system: CAKI-1 renal
[11] = system: OVCAR-3 ovarian
[12] = system: BT-549 breast
[13] = system: T-47D breast
[14] = system: TK-10 renal
[15] = system: OVCAR-8 ovarian
[16] = system: UACC-257 melanoma
[17] = system: COLO 205 colon
[18] = system: K-562 leukemia
[19] = system: SK-MEL-28 melanoma
[20] = system: SK-MEL-2 melanoma
[21] = system: M14 melanoma
[22] = system: RXF 393 renal
[23] = system: SN12C renal
[24] = system: SNB-19 CNS
[25] = system: SF-295 CNS
[26] = system: HT29 colon
[27] = system: MALME-3M melanoma
[28] = system: HOP-92 NSCLC
[29] = system: SK-OV-3 ovarian
[30] = system: HCT-116 colon
[31] = system: KM12 colon
[32] = system: NCI-H226 lung
[33] = system: SF-539 CNS
[34] = system: MOLT-4 leukemia
[35] = system: A549 NSCLC
[36] = system: U251 glioblastoma
[37] = system: 786-0 renal
[38] = system: HL-60(TB) leukemia
[39] = system: HCT-15 colon
[40] = system: SNB-75 CNS
[41] = system: OVCAR-5 ovarian
[42] = system: NCI-H522 lung
[43] = system: MCF7 breast
[44] = system: OVCAR-4 ovarian
[45] = system: EKVX NSCLC
[46] = system: SR leukemia
[47] = system: MDA-MB-435 melanoma
[48] = system: PC-3 prostate
[49] = system: SW-620 colon
[50] = system: MDA-MB-468 breast
[51] = system: HOP-62 NSCLC
[52] = system: IGROV1 ovarian
[53] = system: HS 578T breast
[54] = system: NCI-H23 lung
[55] = system: RPMI-8226 leukemia
[56] = system: NCI/ADR-RES ovarian
[57] = system: HCC-2998 colon
[58] = system: NCI-H460 NSCLC
[59] = system: CCRF-CEM leukemia

`O=C(NCCc1ccccc1)C(c1csc2ccccc12)N(C(=O)CCl)c1ccc(-c2cnco2)cc1` (centres undefined) showed a GI50 [1] of 1680 nM, a TGI [1] of 3050 nM and a GI50 [2] of 358 nM. It also gave a TGI [2] of 1680 nM, a GI50 [3] of 19.9 nM and a TGI [3] of 43.3 nM. The GI50 [4] was 62 nM, the TGI [4] was 1400 nM and the GI50 [5] was 104 nM. The TGI [5] was 222 nM, the GI50 [6] was 16 nM and the TGI [6] was 30 nM. For the same compound, the GI50 [7] was 70.3 nM, the TGI [7] was 198 nM and the GI50 [8] was 18 nM. For the same compound, the TGI [8] was 34 nM, the GI50 [9] was < 10 nM and the GI50 [10] was < 10 nM. The TGI [10] was 19 nM, the GI50 [11] was 145 nM and the TGI [11] was 314 nM. It also gave a GI50 [12] of 37.6 nM, a TGI [12] of 131 nM and a GI50 [13] of 37.7 nM. It also gave a TGI [13] of 148 nM, a GI50 [14] of 18.6 nM and a TGI [14] of 36.4 nM. The GI50 [15] was 19.6 nM, the TGI [15] was 56.6 nM and the GI50 [16] was 121 nM. The TGI [16] was 412 nM, the GI50 [17] was 1460 nM and the TGI [17] was 2780 nM. The GI50 [18] was 78.4 nM, the TGI [18] was 212 nM and the GI50 [19] was 1430 nM. It also gave a TGI [19] of 2740 nM, a GI50 [20] of 29.7 nM and a TGI [20] of 102 nM. For the same compound, the GI50 [21] was 138 nM, the TGI [21] was 288 nM and the GI50 [22] was 10.8 nM. It also gave a TGI [22] of 23.2 nM, a GI50 [23] of 1040 nM and a TGI [23] of 2220 nM. The GI50 [24] was 1760 nM, the TGI [24] was 3160 nM and the GI50 [25] was 131 nM. For the same compound, the TGI [25] was 261 nM, the GI50 [26] was 127 nM and the TGI [26] was 273 nM. The GI50 [27] was 56.4 nM, the TGI [27] was 180 nM and the GI50 [28] was 16.9 nM. It also gave a TGI [28] of 31.1 nM, a GI50 [29] of 197 nM and a TGI [29] of 394 nM. For the same compound, the GI50 [30] was 287 nM, the TGI [30] was 1030 nM and the GI50 [31] was 483 nM. The TGI [31] was 1640 nM, the GI50 [32] was 193 nM and the TGI [32] was 724 nM. The GI50 [33] was 16.5 nM, the TGI [33] was 34.9 nM and the GI50 [34] was 20.2 nM. The TGI [34] was 36.4 nM, the GI50 [35] was 263 nM and the TGI [35] was 1580 nM. For the same compound, the GI50 [36] was 101 nM, the TGI [36] was 239 nM and the GI50 [37] was 16.5 nM. For the same compound, the TGI [37] was 33.2 nM, the GI50 [38] was 21.4 nM and the TGI [38] was 36.4 nM. For the same compound, the GI50 [39] was 77.6 nM, the TGI [39] was 216 nM and the GI50 [40] was 19.1 nM. For the same compound, the TGI [40] was 38 nM, the GI50 [41] was 349 nM and the TGI [41] was 1310 nM. For the same compound, the GI50 [42] was < 10 nM, the TGI [42] was 15.1 nM and the GI50 [43] was 342 nM. It also gave a TGI [43] of 1480 nM, a GI50 [44] of 16.8 nM and a TGI [44] of 30.8 nM. It also gave a GI50 [45] of 15.7 nM, a TGI [45] of 32.1 nM and a GI50 [46] of 17.6 nM. It also gave a TGI [46] of 31.9 nM, a GI50 [47] of 432 nM and a TGI [47] of 1680 nM. It also gave a GI50 [48] of 110 nM, a TGI [48] of 245 nM and a GI50 [49] of 151 nM. It also gave a TGI [49] of 289 nM, a GI50 [50] of 21.5 nM and a TGI [50] of 88.1 nM. For the same compound, the GI50 [51] was 23.7 nM, the TGI [51] was 68.4 nM and the GI50 [52] was 18.2 nM. The TGI [52] was 34 nM, the GI50 [53] was 113 nM and the TGI [53] was 238 nM. For the same compound, the GI50 [54] was 16.5 nM and the TGI [54] was 35 nM.
For `O=c1cc(N2CCOCC2)oc2c(-c3ccccc3)cccc12`, the GI50 [55] was 2460 nM, the TGI [55] was 8770 nM and the GI50 [1] was 12700 nM. For the same compound, the TGI [1] was 73200 nM, the GI50 [2] was 10800 nM and the TGI [2] was 23500 nM. The GI50 [3] was 4130 nM, the TGI [3] was 45800 nM and the GI50 [4] was 8800 nM. It also gave a TGI [4] of 55500 nM, a GI50 [5] of 1860 nM and a TGI [5] of 8980 nM. For the same compound, the GI50 [6] was 7850 nM, the TGI [6] was 26800 nM and the GI50 [7] was 5910 nM. The TGI [7] was 28100 nM, the GI50 [8] was 8870 nM and the TGI [8] was 23300 nM. It also gave a GI50 [10] of 1890 nM, a TGI [10] of 9030 nM and a GI50 [11] of 6360 nM. It also gave a TGI [11] of 27900 nM, a GI50 [12] of 2610 nM and a TGI [12] of 14400 nM. It also gave a GI50 [13] of 3600 nM, a TGI [13] of 23400 nM and a GI50 [14] of 2790 nM. For the same compound, the TGI [14] was 15400 nM, the GI50 [15] was 4900 nM and the TGI [15] was 32100 nM. For the same compound, the GI50 [16] was 16900 nM, the TGI [16] was 51300 nM and the GI50 [17] was 10100 nM. The TGI [17] was 22600 nM, the GI50 [19] was 5440 nM and the TGI [19] was 30700 nM. The GI50 [20] was 20100 nM, the TGI [20] was 38900 nM and the GI50 [56] was 5080 nM. For the same compound, the TGI [56] was 21800 nM, the GI50 [21] was 4810 nM and the TGI [21] was 29000 nM. It also gave a GI50 [22] of 2940 nM, a TGI [22] of 16600 nM and a GI50 [57] of 12300 nM. For the same compound, the TGI [57] was 33000 nM, the GI50 [23] was 8030 nM and the TGI [23] was 97500 nM. The GI50 [24] was 23700 nM, the TGI [24] was > 100000 nM and the GI50 [25] was 17800 nM. The TGI [25] was > 100000 nM, the GI50 [26] was 6690 nM and the TGI [26] was 28700 nM. For the same compound, the GI50 [27] was 2120 nM, the TGI [27] was 8780 nM and the GI50 [28] was 4790 nM. For the same compound, the TGI [28] was 43200 nM, the GI50 [29] was 3640 nM and the TGI [29] was 19700 nM. It also gave a GI50 [31] of 14000 nM, a TGI [31] of 81700 nM and a GI50 [32] of 3450 nM. It also gave a TGI [32] of 10900 nM, a GI50 [33] of 10100 nM and a TGI [33] of 37000 nM. The GI50 [34] was 3860 nM, the TGI [34] was 15200 nM and the GI50 [35] was 5870 nM. For the same compound, the TGI [35] was 27900 nM, the GI50 [36] was 16400 nM and the TGI [36] was 58700 nM. The GI50 [37] was 7170 nM, the TGI [37] was 93500 nM and the GI50 [38] was 2600 nM. The TGI [38] was 12600 nM, the GI50 [39] was 6350 nM and the TGI [39] was 90200 nM. It also gave a GI50 [40] of 1270 nM, a TGI [40] of 12200 nM and a GI50 [41] of 4020 nM. The TGI [41] was 39100 nM, the GI50 [42] was 2440 nM and the TGI [42] was 10900 nM. The GI50 [43] was 3000 nM, the TGI [43] was 25600 nM and the GI50 [44] was 1760 nM. The TGI [44] was 9300 nM, the GI50 [58] was 5910 nM and the TGI [58] was 66300 nM. It also gave a GI50 [45] of 4430 nM, a TGI [45] of 26700 nM and a GI50 [46] of 2200 nM. It also gave a TGI [46] of 5980 nM, a GI50 [47] of 10300 nM and a TGI [47] of 32100 nM. It also gave a GI50 [48] of 3180 nM, a TGI [48] of 18300 nM and a GI50 [49] of 18900 nM. The TGI [49] was > 100000 nM, the GI50 [50] was 2240 nM and the TGI [50] was 7780 nM. The GI50 [51] was 5170 nM, the TGI [51] was 32800 nM and the GI50 [52] was 2540 nM. It also gave a TGI [52] of 7630 nM, a GI50 [59] of 4080 nM and a TGI [59] of 16100 nM. The GI50 [53] was 2780 nM, the TGI [53] was 9320 nM and the GI50 [54] was 8850 nM. For the same compound, the TGI [54] was 32400 nM.
